# Data taken from PubChem BioAssay AID1963985 (Molecular Pharmacology Branch, DTP, NCI, 2024).
# System: 252836-082-R-J2-PDC tumor spheroids, viability
# Experiment: Anticancer human tumor 252836-082-R-J2-PDC patient-derived head and neck squamous cell carcinoma cell line growth inhibition [PI3K]
# Settings: spheroids with HUVEC and MSC; for IC50: curve of first compound; for viability, T/C: stronger effect = lower value
# Method in brief: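 Three cell types, namely tumor cells, endothelial cells and mesenchymal stem cells, formed each spheroid. Combinations with four PI3K inhibitors were screened at clinically achievable concentrations decreasing by half-log, and spheroid viability was recorded.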
# [1] = second compound 0.0316 µM, first compound 0.0316 µM
# [2] = second compound 0.0316 µM, first compound 0.1 µM
# [3] = second compound 0.0316 µM, first compound 0.316 µM
# [4] = second compound 0.0316 µM, first compound 1 µM
# [5] = second compound 0.0316 µM, first compound 3.16 µM
# [6] = second compound 0.0316 µM, first compound 10 µM
# [7] = second compound 0.1 µM, first compound 0.0316 µM
# [8] = second compound 0.1 µM, first compound 0.1 µM
# [9] = second compound 0.1 µM, first compound 0.316 µM
# [10] = second compound 0.1 µM, first compound 1 µM
# [11] = second compound 0.1 µM, first compound 3.16 µM
# [12] = second compound 0.1 µM, first compound 10 µM
# [13] = second compound 0.316 µM, first compound 0.0316 µM
# [14] = second compound 0.316 µM, first compound 0.1 µM
# [15] = second compound 0.316 µM, first compound 0.316 µM
# [16] = second compound 0.316 µM, first compound 1 µM
# [17] = second compound 0.316 µM, first compound 3.16 µM
# [18] = second compound 0.316 µM, first compound 10 µM
# [19] = second compound 1 µM, first compound 0.0316 µM
# [20] = second compound 1 µM, first compound 0.1 µM
# [21] = second compound 1 µM, first compound 0.316 µM
# [22] = second compound 1 µM, first compound 1 µM
# [23] = second compound 1 µM, first compound 3.16 µM
# [24] = second compound 1 µM, first compound 10 µM
# 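Further: spheroids exposed to agents for seven days before readout.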
# 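Wherever viability, T/C is given: percent of vehicle DMSO control viability so 100% = untreated growth.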
smiles,measurement,setting,value
Cn1ncc(Cl)c1-c1cc(C(=O)NC(CN)Cc2cccc(F)c2)sc1Cl (centres undefined) + COc1c(OCCCN2CCOCC2)ccc2c3n(c(=NC(=O)c4cnc(N)nc4)nc12)CCN3,IC50,second compound 0.00316 µM,781 nM
same,IC50,second compound 0.01 µM,416 nM
same,IC50,second compound 0.0316 µM,376 nM
same,IC50,second compound 0.1 µM,< 31.6 nM
same,IC50,second compound 0.316 µM,< 31.6 nM
same,IC50,second compound 1 µM,< 31.6 nM
same,"viability, T/C","second compound 0.00316 µM, first compound 0.0316 µM",88.6%
same,"viability, T/C","second compound 0.00316 µM, first compound 0.1 µM",79.1%
same,"viability, T/C","second compound 0.00316 µM, first compound 0.316 µM",60.2%
same,"viability, T/C","second compound 0.00316 µM, first compound 1 µM",45.7%
same,"viability, T/C","second compound 0.00316 µM, first compound 3.16 µM",32.3%
same,"viability, T/C","second compound 0.00316 µM, first compound 10 µM",11.2%
same,"viability, T/C","second compound 0.01 µM, first compound 0.0316 µM",71.8%
same,"viability, T/C","second compound 0.01 µM, first compound 0.1 µM",67.8%
same,"viability, T/C","second compound 0.01 µM, first compound 0.316 µM",50.6%
same,"viability, T/C","second compound 0.01 µM, first compound 1 µM",40.1%
same,"viability, T/C","second compound 0.01 µM, first compound 3.16 µM",29%
same,"viability, T/C","second compound 0.01 µM, first compound 10 µM",18.4%
same,"viability, T/C",[1],59.1%
same,"viability, T/C",[2],68.6%
same,"viability, T/C",[3],50%
same,"viability, T/C",[4],34.5%
same,"viability, T/C",[5],23.1%
same,"viability, T/C",[6],11.7%
same,"viability, T/C",[7],40.8%
same,"viability, T/C",[8],36.4%
same,"viability, T/C",[9],37%
same,"viability, T/C",[10],26.4%
same,"viability, T/C",[11],17.2%
same,"viability, T/C",[12],9.98%
same,"viability, T/C",[13],21.1%
same,"viability, T/C",[14],13.9%
same,"viability, T/C",[15],14.8%
same,"viability, T/C",[16],14.2%
same,"viability, T/C",[17],13%
same,"viability, T/C",[18],7.08%
same,"viability, T/C",[19],4.42%
same,"viability, T/C",[20],4.98%
same,"viability, T/C",[21],4.84%
same,"viability, T/C",[22],6.71%
same,"viability, T/C",[23],4.88%
same,"viability, T/C",[24],1.6%
Cn1nccc1Nc1nccc(-c2ccn(C(CO)c3ccc(Cl)c(F)c3)c(=O)c2)n1 (centres undefined) + Cc1nc(NC(=O)N2CCCC2C(N)=O)sc1-c1ccnc(C(C)(C)C(F)(F)F)c1,IC50,second compound 0.0316 µM,> 10000 nM
same,IC50,second compound 0.1 µM,> 10000 nM
same,IC50,second compound 0.316 µM,> 10000 nM
same,IC50,second compound 1 µM,7540 nM
same,IC50,second compound 3.16 µM,< 31.6 nM
same,IC50,second compound 10 µM,< 31.6 nM
same,"viability, T/C",[1],87%
same,"viability, T/C",[2],91%
same,"viability, T/C",[3],91%
same,"viability, T/C",[4],97.9%
same,"viability, T/C",[5],104%
same,"viability, T/C",[6],66%
same,"viability, T/C",[7],87.4%
same,"viability, T/C",[8],85.7%
same,"viability, T/C",[9],79.8%
same,"viability, T/C",[10],90.6%
same,"viability, T/C",[11],81.3%
same,"viability, T/C",[12],62.4%
same,"viability, T/C",[13],74.7%
same,"viability, T/C",[14],66.6%
same,"viability, T/C",[15],81.7%
same,"viability, T/C",[16],72.8%
same,"viability, T/C",[17],79.4%
same,"viability, T/C",[18],57.6%
same,"viability, T/C",[19],70.8%
same,"viability, T/C",[20],61.9%
same,"viability, T/C",[21],63.2%
same,"viability, T/C",[22],64.6%
same,"viability, T/C",[23],58%
same,"viability, T/C",[24],47.3%
same,"viability, T/C","second compound 3.16 µM, first compound 0.0316 µM",42.2%
same,"viability, T/C","second compound 3.16 µM, first compound 0.1 µM",46.1%
same,"viability, T/C","second compound 3.16 µM, first compound 0.316 µM",56.9%
same,"viability, T/C","second compound 3.16 µM, first compound 1 µM",45%
same,"viability, T/C","second compound 3.16 µM, first compound 3.16 µM",41.9%
same,"viability, T/C","second compound 3.16 µM, first compound 10 µM",33.5%
same,"viability, T/C","second compound 10 µM, first compound 0.0316 µM",34.4%
same,"viability, T/C","second compound 10 µM, first compound 0.1 µM",37.2%
same,"viability, T/C","second compound 10 µM, first compound 0.316 µM",34.3%
same,"viability, T/C","second compound 10 µM, first compound 1 µM",23.6%
same,"viability, T/C","second compound 10 µM, first compound 3.16 µM",24.5%
same,"viability, T/C","second compound 10 µM, first compound 10 µM",11.8%
